Measurements: patent US20260174874A1, “INSULIN DERIVATIVES” (USTAV ORGANICKE CHEMIE A BIOCHEMIE AKADEMIE VED CR, V. V. I., priority 2022, published 2026)
Values joined by “and” are separate entries in the source; they are usually repeats but may differ in a detail not shown here. Identical values can stand only once. Like-named read-outs stand apart in the source and are kept apart here. Marks after values point to notes of the source that are not given here.

What was measured:
SH-SY5Y cells = assay: Protection of SH-SY5Y cells against methylglyoxal toxicity (MTT assay); assay type: cell-based; details: methylglyoxal 1.5 mmol·l-1, SY5Y cells
IR-A = IR-A (Homo sapiens, UniProt P06213); details: published; (Kd of native hormone/Kd of derivative) × 100; cited from earlier work
IR-A, sequence (P06213 28-1370 isoform P06213-2 limits assumed): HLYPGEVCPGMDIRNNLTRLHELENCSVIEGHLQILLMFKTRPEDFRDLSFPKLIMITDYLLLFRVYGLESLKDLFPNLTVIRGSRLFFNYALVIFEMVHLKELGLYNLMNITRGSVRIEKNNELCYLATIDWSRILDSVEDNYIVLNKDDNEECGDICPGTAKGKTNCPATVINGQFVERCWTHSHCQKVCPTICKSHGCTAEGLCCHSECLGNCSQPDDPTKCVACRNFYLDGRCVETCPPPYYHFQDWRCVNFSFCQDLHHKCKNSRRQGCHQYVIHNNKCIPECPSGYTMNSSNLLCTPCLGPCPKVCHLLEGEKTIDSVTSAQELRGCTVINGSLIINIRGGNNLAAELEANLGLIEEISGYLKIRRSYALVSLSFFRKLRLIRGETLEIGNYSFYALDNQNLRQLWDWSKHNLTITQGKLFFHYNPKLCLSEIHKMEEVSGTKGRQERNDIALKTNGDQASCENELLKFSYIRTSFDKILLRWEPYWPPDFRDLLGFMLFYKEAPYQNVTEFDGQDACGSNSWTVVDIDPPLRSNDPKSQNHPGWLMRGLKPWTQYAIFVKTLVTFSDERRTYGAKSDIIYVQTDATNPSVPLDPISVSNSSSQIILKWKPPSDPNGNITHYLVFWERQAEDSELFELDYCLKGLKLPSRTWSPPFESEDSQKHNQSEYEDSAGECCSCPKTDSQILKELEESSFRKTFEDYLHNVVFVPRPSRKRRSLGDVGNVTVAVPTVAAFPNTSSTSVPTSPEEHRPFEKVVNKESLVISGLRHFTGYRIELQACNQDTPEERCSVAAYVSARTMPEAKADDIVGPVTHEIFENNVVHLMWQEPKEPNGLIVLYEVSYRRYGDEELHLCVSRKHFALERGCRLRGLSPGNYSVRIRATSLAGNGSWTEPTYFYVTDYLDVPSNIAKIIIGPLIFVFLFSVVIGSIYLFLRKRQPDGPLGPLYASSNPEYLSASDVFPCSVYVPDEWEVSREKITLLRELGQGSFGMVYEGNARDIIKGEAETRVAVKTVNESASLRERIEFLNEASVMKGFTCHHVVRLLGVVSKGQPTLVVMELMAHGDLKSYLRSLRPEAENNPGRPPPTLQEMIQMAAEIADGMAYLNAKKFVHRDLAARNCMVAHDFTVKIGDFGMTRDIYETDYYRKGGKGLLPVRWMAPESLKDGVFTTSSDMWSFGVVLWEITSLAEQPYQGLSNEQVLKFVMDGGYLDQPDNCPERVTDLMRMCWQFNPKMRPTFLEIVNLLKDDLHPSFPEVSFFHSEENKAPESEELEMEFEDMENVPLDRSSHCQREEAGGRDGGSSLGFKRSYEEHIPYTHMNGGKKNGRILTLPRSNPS
IR-A, sequence (P06213 763-1382 limits assumed): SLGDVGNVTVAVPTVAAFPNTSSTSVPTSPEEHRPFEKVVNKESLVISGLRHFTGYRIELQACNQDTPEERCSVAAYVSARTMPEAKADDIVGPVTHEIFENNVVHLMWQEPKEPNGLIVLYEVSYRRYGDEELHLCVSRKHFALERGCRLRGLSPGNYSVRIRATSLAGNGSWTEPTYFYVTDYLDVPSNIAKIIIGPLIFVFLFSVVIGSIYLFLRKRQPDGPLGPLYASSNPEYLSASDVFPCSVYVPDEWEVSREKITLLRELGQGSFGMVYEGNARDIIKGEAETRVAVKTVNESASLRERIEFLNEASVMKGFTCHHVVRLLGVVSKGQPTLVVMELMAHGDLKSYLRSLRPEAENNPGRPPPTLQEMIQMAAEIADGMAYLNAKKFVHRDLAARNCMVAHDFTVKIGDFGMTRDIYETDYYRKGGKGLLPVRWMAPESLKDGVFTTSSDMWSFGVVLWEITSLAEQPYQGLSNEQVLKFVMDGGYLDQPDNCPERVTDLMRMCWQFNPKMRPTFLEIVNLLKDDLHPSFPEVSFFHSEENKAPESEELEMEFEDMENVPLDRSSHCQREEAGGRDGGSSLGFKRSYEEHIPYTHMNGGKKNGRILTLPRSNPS

IGF-1R [1] = biological target: T1, IGF-1R (Homo sapiens, UniProt P08069); details: cited from earlier work
IR-B = IR-B (Homo sapiens, UniProt P06213); details: published; (Kd of native hormone/Kd of derivative) × 100; cited from earlier work
IR-B, sequence (P06213 28-758 limits assumed): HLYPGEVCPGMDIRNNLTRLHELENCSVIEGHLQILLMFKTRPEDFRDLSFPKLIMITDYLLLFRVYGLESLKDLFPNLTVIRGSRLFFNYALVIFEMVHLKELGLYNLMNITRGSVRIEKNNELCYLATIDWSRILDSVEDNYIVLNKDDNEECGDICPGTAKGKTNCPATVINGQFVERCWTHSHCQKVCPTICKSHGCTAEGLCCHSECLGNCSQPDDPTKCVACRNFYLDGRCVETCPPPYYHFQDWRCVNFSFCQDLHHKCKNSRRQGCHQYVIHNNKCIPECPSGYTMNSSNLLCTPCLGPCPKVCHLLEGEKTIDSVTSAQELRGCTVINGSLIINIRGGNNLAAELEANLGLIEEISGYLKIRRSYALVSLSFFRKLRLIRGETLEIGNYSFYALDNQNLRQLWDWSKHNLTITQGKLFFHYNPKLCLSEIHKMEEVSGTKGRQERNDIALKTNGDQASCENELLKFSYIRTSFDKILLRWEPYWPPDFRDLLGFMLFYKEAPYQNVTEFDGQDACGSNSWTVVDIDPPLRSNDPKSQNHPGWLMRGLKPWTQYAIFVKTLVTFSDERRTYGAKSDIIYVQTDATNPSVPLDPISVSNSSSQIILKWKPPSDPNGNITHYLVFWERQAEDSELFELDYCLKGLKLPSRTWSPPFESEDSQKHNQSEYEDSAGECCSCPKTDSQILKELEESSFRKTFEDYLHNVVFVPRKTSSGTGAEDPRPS
IR-B, sequence (P06213 763-1382 limits assumed): as the sequence (P06213 763-1382 limits assumed) above

IGF-1R [2] = biological target: T1, IGF-1R; assay: competition with 125I-IGF-1 on mouse fibroblasts transfected with human IGF-1R; relative to human insulin
[3] = published, (Kd of native hormone/Kd of derivative) × 100

IN-ML-15 (GluB10, D-HisB24, GlyB31, TyrB32-insulin) (ligand), sequence (chain): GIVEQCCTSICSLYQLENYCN
IN-ML-15 (GluB10, D-HisB24, GlyB31, TyrB32-insulin) (ligand), sequence (chain): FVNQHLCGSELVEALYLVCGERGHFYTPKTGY

Molecule: CC(=O)C=O [Methylglyoxal, methylglyoxal]
- amount of cells grown in the wells compared with the control (SH-SY5Y cells): 50-60%

Molecule: AspB10-insulin
- Relative binding affinity for IR-A (%) (IR-A): 206%
- Relative binding affinity for IGF-1R (%) (IGF-1R [1]; Converted from Schaffer data): 0.2* %

Molecule: D-AlaB24-insulin
- Relative binding affinity for IR-A (%) (IR-A): 150%

Molecule: D-HisB24, GlyB31, TyrB32-insulin
- Relative binding affinity for IR-A (%) (IR-A): 251%
- Relative binding affinity for IGF-1R (%) (IGF-1R [1]; [3]): 12% and 12.4%
- Relative binding affinity for IR-B (%) (IR-B): 338%

Molecule: D-HisB24-insulin
- Relative binding affinity for IR-A (%) (IR-A): 280%
- Relative binding affinity for IGF-1R (%) (IGF-1R [1]; [3]): 1.0%
- Relative binding affinity for IR-B (%) (IR-B): 250%

Molecule: D-PheB24-insulin
- Relative binding affinity for IR-A (%) (IR-A): 180%

Molecule: D-ProB24-insulin
- Relative binding affinity for IR-A (%) (IR-A): 1.3%

Molecule: GluB10-insulin
- Relative binding affinity for IR-A (%) (IR-A): 407%

Molecule: GlyB31, TyrB32-insulin
- Relative binding affinity for IR-A (%) (IR-A): 162%
- Relative binding affinity for IGF-1R (%) (IGF-1R [1]; [3]): 0.27%
- Relative binding affinity for IR-B (%) (IR-B): 310%

Molecule: IN-ML-15 (GluB10, D-HisB24, GlyB31, TyrB32-insulin) (ligand)
- times more potent than insulin (IGF-1R [2]): 790 times
